The test system of assay [1] is T. cruzi intracellular amastigotes. The assay can be described thus: In vitro anti-T. cruzi intracellular amastigote growth inhibition assay (tdTomato fluorescence over 72 hours, Vero cells). It counts as cell-based, Trypanosoma cruzi. The following applies: for activity at 0.00407 µM: [uM] -2.39 [sic]. How it is done: (§1) The in vitro anti-T. cruzi amastiogote activity assay was performed and optimized based on the protocol described previously. The change in tdTomato fluorescence intensity was determined as a measurement of growth over 72 hours of culture. For assaying drug effects on extracellular amastigotes, trypomastigotes were collected from infected Vero cell cultures and converted in acidic media as previously described. Amastigotes (50,000/well) were incubated with 2-fold serial dilutions of compounds for 48 hours. The ATP production was used as an indication of growth in this case, and was measured by ATPlite Luminescence ATP Detection Assay System (PerkinElmer). Both fluorescence and luminescence were read using a BioTek Synergy Hybrid Multi-Mode reader equipped with the software Gene5 v 2.0 (BioTek). The dose-response curve was generated by […] analysis with GraphPad Prism v9.4.0 (GraphPad Software).

Assay [2] deals with T. cruzi extracellular amastigotes. The assay can be described thus: Extracellular amastigote assay (ATPlite luminescence, 48 hours). It counts as cell-based. Conditions: Trypanosoma cruzi, extracellular amastigotes. How it is done: as §1
(In general: Cellular ATP, detected with luciferase, serves as a proxy for viable cell number.)

Assay [3] deals with CPSF3-OE T. cruzi intracellular amastigotes. The experiment in a line: microbe, parasite or virus in culture. The assay is classed as cell-based. The following applies: Trypanosoma cruzi; for IC50: read-out: CPSF3-OE IC50, intracellular amastigotes; for activity at 0.1 µM / activity at 0.4 µM / activity at 0.7 µM / activity at 1 µM / activity at 1.3 µM / activity at 1.6 µM: 72 h, read-out: % of maximum, CPSF3-OE. How it is done:
as §1
The CPSF3 gene was amplified using primers ‘[…]’ and ‘[…]’, and integrated into the pTrex vector [47] by NEBuilder HiFi DNA assembly (New England Biolabs). The construct of pTrex-CPSF was then transfected into Brazil tdTomato epimastigotes and selected by 60ug/ml blasticidin.
To confirm the CPSF overexpression in the selected transfectants, RNA was extracted as previously described and converted to cDNA using SuperScript Reverse Transcriptase (Invitrogen). Quantitative PCR reactions were performed in triplicate on the C1000 Touch Bio-Rad CFX96 real-time PCR detection system for CPSF using primer sets CPSF-1 (5'-[…]-3' and 5'-[…]-3') and CPSF-2 (5'-[…]-3' and 5'-[…]-3') in both control and CPSF over-expressing parasites, and the expression level was normalized to tubulin which was amplified using primers: ‘[…]’ and ‘[…]’.

Assay [4] concerns TcCBP KO T. cruzi intracellular amastigotes. The experiment in a line: microbe, parasite or virus in culture. It counts as cell-based. The following applies: Trypanosoma cruzi, read-out: TcCBP KO IC50. The method, then:
as §1
The CBPs knockout was produced using ribonucleoprotein (RNP) complexes as previously described. Briefly, Brazil tdTomato strain epimastigotes were electroporated with RNP complexes containing SaCas9 and an sgRNA targeting CBP gene TcBrA4_0048170, plus a repair template containing stop codons in all three reading frames and the M13 sequence for use as a PCR anchor. The sgRNA targeted the ‘[…]” sequence. After 2 days of recovery, single-cell clones were derived by depositing epimastigotes into a 96-well plate at a density of 0.5 cell/well by using a MoFlo Astrios EQ cell sorter (Beckman Coulter). DNA isolation was performed for clones, and primer pair of 5’-[…]-3’ and 5’- […] -3’ was used for amplifying the wild type allele, while primer pair of M13-F: 5’- […] -3’ and 5’- […] -3’ was used for amplifying the mutant allele.

Assay [5] relates to tdTomato expressing T. cruzi (CL strain). The assay can be described thus: Rapid in vivo assay: footpad infection, single oral dose, fluorescence imaging 2 and 4 dpi (proliferation index).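 Also: single oral dose of 50 mg/kg given at 2 dpi.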 The arrangement: species or system C57BL/6 mice. Conditions: Fig. 3a; individual footpads. The method, then:
Fluorescent intensity of the feet was measured at 2 dpi before compound administration and at 4 dpi in the Maestro in vivo imaging system equipped with the software Maestro 2.1.0 (CRi) as previously described. The proliferation index was estimated as PI=[(T4d – T2d)/(mUnt4d-mUnt2d)]*100; where T4d and T2d are the fluorescence intensity of the feet of the treated animals at days 4 and 2 post-infection respectively; mUnt4d and mUnt2d are the average fluorescence intensity of the feet of the untreated animals at 4 and 2 dpi respectively.

In a further assay the test system is T. cruzi Brazil strain. The experiment in a line: Mouse cure assays (daily oral treatment, immunosuppression, qPCR of skeletal muscle, blood microscopy, hemoculture). The following applies: individual mice. It counts as in vivo, C57BL/6 mice. How it is done: Male or female C57BL/6 mice were intraperitoneally infected with 10^4 trypomastigotes of the Brazil strain. Mouse infection was confirmed at 25-30 dpi by detection of CD8^+ T cells specific against the T. cruzi TSKb20 peptide in blood. Compounds resuspended in 1% carboxymethyl cellulose and 0.1% Tween 80, were administered daily by gavage at the specified concentrations. In order to optimally detect persistent infection, immune responses in the mice were suppressed by intraperitoneal injection of four doses of cyclophosphamide every 2-3 days (200 mg/kg/day), beginning one week after the end of therapeutic treatment. At the end of the immunosuppression regimen, peripheral blood was checked under light microscope for parasites and cultured in LDNT media. Mouse skeletal muscle samples were obtained at the end of the immunosuppression and processed for T. cruzi-DNA detection by qPCR as previously described.
In general terms: Real-time PCR tracks product formation cycle by cycle.

In the next assay the test system is T. cruzi. The following applies: T. cruzi-infected NHPs; cited from earlier work.
Setting [6] is: Trypanosoma cruzi, Vero, in vitro, Fig. 1a, Extended Data Fig. 1a, read-out: T. cruzi IC50.
Where [7] appears, read: 48 hours, Fig. 5f, Extended Data Fig. 4d, read-out: IC50 (nM) T. cruzi extra-.
[8] abbreviates: Trypanosoma cruzi, Vero, intracellular T. cruzi, Fig. 5f, read-out: IC50 (nM) T. cruzi intra-.
Where [9] appears, read: Trypanosoma cruzi, Vero, 72 h, read-out: % of maximum, WT, single replicates.
Setting [10] is: Trypanosoma cruzi, Vero, read-out: WT IC50, WT intracellular amastigotes, control of CPSF3-OE comparison.
Setting [11] is: Trypanosoma cruzi, Vero, read-out: WT IC50, WT intracellular amastigotes, control of TcCBP KO comparison.

Where “and” joins values, the source holds several entries; their conditions need not be identical. Equal values may be shown once. Read-outs that look alike come from different tables or passages of the source. Where only a bound is given, the exact number is not on record here.

As a reminder, the IC50 is the concentration that gives 50% inhibition. As for `CC(C)[C@H](NC(=O)c1ccc2c(c1)B(O)OC2)C(=O)OCc1ccccc1` [AN10443], the results for the IC50 in assay [1] (setting [6]) and in assay [2] (setting [7]) were 670 nM and 13 nM, respectively.

Turning to `CC(C)[C@H](NC(=O)c1ccc2c(c1F)B(O)OC2)C(=O)OCc1ccccc1` [AN11622], the 50% inhibitory concentration (IC50) was over 1250 nM in assay [1] (setting [8]) and 37 nM in assay [2] (setting [7]).

Take `Cc1c(C(=O)N[C@H](C(=O)OCc2ccccc2)C(C)C)ccc2c1B(O)OC2` [AN11735]: the half-maximal inhibitory concentration (IC50) in assay [2] (setting [7]) was 1.2 nM.

As to `Cc1c(C(=O)NC(C(=O)OCc2ccc(F)cc2)C(C)C)ccc2c1B(O)OC2` (stereo not shown) [AN11736, 4-fluorobenzyll-valinate amide benzoxaborole], in assay [1] (setting [9]), the activity at 0.00407 µM came to 46%. Further, the half-inhibitory concentration (IC50) in assay [1] (setting [10]) was determined as 3.2 nM; in assay [1] (setting [11]), 3.2 nM; in assay [3], 6.5 nM; in assay [4], 618 nM. Moreover, the “% of maximum” value in assay [1] (WT, [uM] -1.43 as printed, single replicates) is -1% and 1%.

`CCc1c(C(=O)N[C@H](C(=O)OCc2ccccc2)C(C)C)ccc2c1B(O)OC2` [AN14557]: the IC50 in assay [1] (setting [8]) turned out to be 37 nM; in assay [2] (setting [7]), 1.5 nM.

As to `CC(C)C(NC(=O)c1ccc2c(c1C1CC1)B(O)OC2)C(=O)OCc1ccccc1` (stereo not shown) [AN14577], the IC50 is over 1250 nM in assay [1] (setting [8]) and 240 nM in assay [2] (setting [7]).

`CC(C)c1c(C(=O)NC(C(=O)OCc2ccccc2)C(C)C)ccc2c1B(O)OC2` (stereo not shown) [AN14630]: the IC50 in assay [1] (setting [8]) is over 1250 nM; in assay [2] (setting [7]), 13 nM.

In the case of `Cc1c(C(=O)N[C@H](C(=O)O)C(C)C)ccc2c1B(O)OC2` [AN14667], the activity at 0.7 µM in assay [1] (Trypanosoma cruzi, Vero, 72 h, read-out: % of maximum, WT, [uM] 0.70, single replicates) was determined as 43%; in assay [1] (Trypanosoma cruzi, Vero, 72 h, read-out: % of maximum, WT, concentration 0.70 [uM] as printed) it was 43%; in assay [1] (Trypanosoma cruzi, Vero, 72 h, read-out: % of maximum, intracellular, [uM] 0.70) it was 43%; in assay [3] ([uM] 0.70, single replicates), 108%; in assay [3] (concentration 0.70 [uM] as printed), 108%. The activity at 1 µM in assay [1] (Trypanosoma cruzi, Vero, 72 h, read-out: % of maximum, WT, [uM] 1.00, single replicates) came out at 0%; in assay [3] ([uM] 1.00, single replicates), 89%; in assay [3] (concentration 1.00 [uM] as printed) it was 89%. The activity at 0.1 µM in assay [1] (Trypanosoma cruzi, Vero, 72 h, read-out: % of maximum, intracellular, [uM] 0.10) stood at 86%; in assay [3] ([uM] 0.10, single replicates) it was 97%; in assay [3] (concentration 0.10 [uM] as printed), 97%. Moreover, the activity at 0.4 µM in assay [1] (Trypanosoma cruzi, Vero, 72 h, read-out: % of maximum, intracellular, [uM] 0.40) worked out at 66%; in assay [3] ([uM] 0.40 as printed, single replicates) it was 102%; in assay [3] (concentration 0.40 [uM] as printed), 102%. Besides, the activity at 1.6 µM in assay [1] (Trypanosoma cruzi, Vero, 72 h, read-out: % of maximum, intracellular, [uM] 1.60) was determined as 0%; in assay [3] ([uM] 1.60 as printed, single replicates) it was 27%; in assay [3] (concentration 1.60 [uM] as printed), 27%. The IC50 amounted to 5720 nM in assay [1] (setting [6]); 3600 nM in assay [1] (Trypanosoma cruzi, Vero, intracellular amastigotes, Fig. 2a, read-out: Intracellular IC50); 3900 nM in assay [2] (Fig. 2a, read-out: Extracellular IC50). For the same compound, the “reduced activity relative to ester prodrug” value in assay [1] (both intra- and extracellular amastigotes) is given as ~ 1000 fold. The “% of maximum” value in assay [1] (intracellular, [uM] 1.60) is reported as 0%. Besides, the activity at 1.3 µM in assay [3] ([uM] 1.30 [sic], single replicates) was 59%; in assay [3] (concentration 1.30 [uM] as printed), 59%.

As for `Cc1c(C(=O)N[C@H](C(=O)OC2CCOCC2)C(C)C)ccc2c1B(O)OC2` [AN15572], in assay [1] (setting [6]), the 50% inhibitory concentration (IC50) stood at 11 nM.

For `Cc1c(C(=O)NC(C(=O)OCC2CCOC2)C(C)C)ccc2c1B(O)OC2` (stereo not shown) [AN16109], the activity at 0.00407 µM in assay [1] (setting [9]) was determined as 75%. Also, the half-maximal inhibitory concentration (IC50) in assay [1] (setting [10]) amounted to 6.6 nM; in assay [1] (setting [11]) it was 6.6 nM; in assay [1] (setting [6]) it was 5 nM; in assay [3] it was 22.7 nM; in assay [4], 2500 nM. For the same compound, the “% of maximum” value in assay [1] (WT, [uM] 0.00 as printed, single replicates) was 0%; in assay [1] (WT, [uM] -1.91 as printed, single replicates), 13%. In addition, in assay [5], the “Parasite proliferation index of footpads infected with tdTomato-expressing T. cruzi” value is 52.8 and 35.3 and 33.3 and 35.0 and 26.3 and 26.8 and -3.0 and 4.6 and 35.6 and 29.4. The “Parasite equivalent/ 50 ng of DNA of skeletal muscle” value in the assay with T. cruzi Brazil strain (Fig. 3c, mice treated for 20 days) was 0.11 Parasite equivalent/ 50 ng of DNA and 0.27 Parasite equivalent/ 50 ng of DNA and 0.0541 Parasite equivalent/ 50 ng of DNA and 0.0079 Parasite equivalent/ 50 ng of DNA and 0.12 Parasite equivalent/ 50 ng of DNA and 0.0367 Parasite equivalent/ 50 ng of DNA; with T. cruzi Brazil strain (Fig. 3e, mice treated for 40 days with 2.5 mg/kg, 2.5 mg/kg) it was 0.223 Parasite equivalent/ 50 ng of DNA and 0.2345 Parasite equivalent/ 50 ng of DNA and 0.468 Parasite equivalent/ 50 ng of DNA and 0.01907 Parasite equivalent/ 50 ng of DNA and 0.1637 Parasite equivalent/ 50 ng of DNA and 1.455 Parasite equivalent/ 50 ng of DNA and 0.04407 Parasite equivalent/ 50 ng of DNA and 0.06524 Parasite equivalent/ 50 ng of DNA.

As to `O=C(Cn1ccnc1[N+](=O)[O-])NCc1ccccc1` [BNZ], the “Parasite proliferation index of footpads infected with tdTomato-expressing T. cruzi” value in assay [5] was 23.6 and 6.5 and 46.7 and 1.3 and 29.6 and 25.1 and 51.0 and 55.7 and -21.7 and -21.2.

Regarding `CC[C@@H]([C@H](C)O)n1ncn(-c2ccc(N3CCN(c4ccc(OC[C@@H]5CO[C@@](Cn6cncn6)(c6ccc(F)cc6F)C5)cc4)CC3)cc2)c1=O` [posaconazole], in the assay with T. cruzi, the “failures in treatment trial” value was 100%.

The values are drawn from article PMC9519446, “Discovery of an Orally Active Benzoxaborole Prodrug Effective in the Treatment of Chagas Disease in Non-human Primates” (Nature microbiology, 2022).
